From ChEMBL document CHEMBL1201862, “PubChem BioAssay data set” (2004)
Activity calls are given as the source filed them.

Legend:
[1] = A cytotoxicity screen of small molecule inhibitors of the PhoP region in Salmonella typhi identified in the primary screen. [Related pubchem assays: 1850, 1864, 1985 ]; format: functional
[2] = target: T1, Calpain-2 catalytic subunit (Sus scrofa, UniProt P43367); assay: pig calpain II inhibitor potency, dose response, biochemical, fluorogenic peptide substrate (AID 1420); format: functional
T1 sequence (P43367 whole entry): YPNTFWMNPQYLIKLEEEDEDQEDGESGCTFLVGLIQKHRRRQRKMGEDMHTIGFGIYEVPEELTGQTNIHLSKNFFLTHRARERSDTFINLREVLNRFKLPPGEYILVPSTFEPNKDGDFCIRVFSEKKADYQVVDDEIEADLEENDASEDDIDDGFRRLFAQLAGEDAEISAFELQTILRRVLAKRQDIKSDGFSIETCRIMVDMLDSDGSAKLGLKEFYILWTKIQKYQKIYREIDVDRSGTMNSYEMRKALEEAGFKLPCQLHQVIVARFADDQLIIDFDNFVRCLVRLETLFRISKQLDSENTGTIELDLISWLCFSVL

[3] = target: Glyceraldehyde-3-phosphate dehydrogenase (Homo sapiens, UniProt P04406)
Glyceraldehyde-3-phosphate dehydrogenase, sequence (P04406 whole entry): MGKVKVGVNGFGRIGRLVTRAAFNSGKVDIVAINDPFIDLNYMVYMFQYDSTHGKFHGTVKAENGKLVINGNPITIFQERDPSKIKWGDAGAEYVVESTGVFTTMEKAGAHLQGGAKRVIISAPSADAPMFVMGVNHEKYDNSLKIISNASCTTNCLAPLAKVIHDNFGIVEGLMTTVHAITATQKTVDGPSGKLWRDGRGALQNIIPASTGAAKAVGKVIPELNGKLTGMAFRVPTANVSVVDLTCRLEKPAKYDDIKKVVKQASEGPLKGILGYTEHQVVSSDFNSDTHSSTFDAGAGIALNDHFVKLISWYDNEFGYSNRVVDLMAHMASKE

[4] = inhibitors of firefly luciferase expression or activity, dose response, H4 neuroglioma cells, luminescence (AID 1990); format: functional, cell-based
[5] = HepG2 cell cytotoxicity, dose response, cytotoxicity control for Shn3 inhibitor project, CellTiter-Glo, cherry-picked (AID 624134); format: functional, cell-based
[6] = inhibitors of intracellular T. cruzi replication, confirmation, NIH3T3 host cells, beta-gal luminescence (AID 2044); format: functional, cell-based;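 further: intracellular parasites grown in NIH/3T3 mouse fibroblasts as host cells; luminescent beta-galactosidase reporter signal from transgenic T. cruzi replicating inside host cells; inhibitors lower the luminescence signal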
[7] = inhibitors of SNCA 5'UTR-driven reporter translation, confirmation, H4 neuroglioma cells, luminescence (AID 1988); format: functional, cell-based
[8] = Shn3 3'UTR reporter inhibitors, dose response, cell-based, Clone20 osteoblasts, firefly luciferase, cherry-picked (AID 624132); format: functional;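 further: firefly luciferase luminescence from reporter carrying the Shn3 3'UTR in osteoblasts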
[9] = Luminescence Cell-Based Dose Response HTS to Identify Inhibitors of 5'UTR Stem-Loop Driven Prion Protein mRNA Translation in H4 Neuroglioblastoma Cells. [Related pubchem assays: 1827 (Project Summary), 1813 (Primary HTS)]; format: functional
[10] = cytotoxicity toward NIH3T3 fibroblasts, dose response, counter-screen, cell-based, ATP luminescence, mouse fibroblasts (AID 2010); format: functional;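 further: cells exposed to compound for about 90 hours before reading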
[11] = control 3'UTR Renilla luciferase suppression, dose response, counter-screen for Shn3 inhibitor project, cell-based, Clone20-Shn3RL, cherry-picked (AID 624133); format: functional
INS1 = assay: beta cell apoptosis inhibitors, cytokine rescue, dose response, luminescence, retest (AID 449756); format: functional, cell-based; settings: Rattus norvegicus;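 further: cell death triggered by IL-1 beta plus TNF-alpha plus IFN-gamma mixture; protective hits raise ATP signal compared with cytokine alone wells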
Protein RecA = target: T2, Protein RecA (Mycobacterium tuberculosis, UniProt P9WHJ3); assay: Fluorescence Cell-Free Homogeneous Dose Retest to Identify Inhibitors of RecA-Intein Splicing Activity. [Related pubchem assays (depositor defined):AID2097, AID2223, AID489010, AID492950]; format: functional
T2 sequence (P9WHJ3 whole entry): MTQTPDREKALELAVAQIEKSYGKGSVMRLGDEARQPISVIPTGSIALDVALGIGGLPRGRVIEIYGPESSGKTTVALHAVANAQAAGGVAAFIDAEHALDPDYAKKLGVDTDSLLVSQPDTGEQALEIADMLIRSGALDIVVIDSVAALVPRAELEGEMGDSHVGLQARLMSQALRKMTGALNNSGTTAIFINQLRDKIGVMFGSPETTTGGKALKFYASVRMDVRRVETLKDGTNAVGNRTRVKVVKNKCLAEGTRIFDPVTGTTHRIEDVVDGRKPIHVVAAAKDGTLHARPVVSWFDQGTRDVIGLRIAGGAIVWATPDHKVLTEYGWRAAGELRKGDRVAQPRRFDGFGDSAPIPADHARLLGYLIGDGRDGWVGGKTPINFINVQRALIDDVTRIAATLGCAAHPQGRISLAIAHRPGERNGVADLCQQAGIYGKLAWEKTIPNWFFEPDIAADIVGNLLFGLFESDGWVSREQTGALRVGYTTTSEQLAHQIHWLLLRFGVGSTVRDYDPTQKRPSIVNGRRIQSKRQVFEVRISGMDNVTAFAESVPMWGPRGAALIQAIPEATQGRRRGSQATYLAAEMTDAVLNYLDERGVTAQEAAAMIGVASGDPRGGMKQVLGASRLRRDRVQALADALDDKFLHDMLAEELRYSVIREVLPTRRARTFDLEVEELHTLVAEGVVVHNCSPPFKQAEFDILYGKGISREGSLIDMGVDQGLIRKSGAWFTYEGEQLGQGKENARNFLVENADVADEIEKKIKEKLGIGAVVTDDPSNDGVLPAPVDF

[12] = target: T3, Replicative DNA helicase DnaB (Mycobacterium tuberculosis, UniProt P9WMR3); assay: DnaB intein splicing inhibitors, dose response, biochemical, cell-free fluorescence (AID 449749); format: functional
T3 sequence (P9WMR3 whole entry): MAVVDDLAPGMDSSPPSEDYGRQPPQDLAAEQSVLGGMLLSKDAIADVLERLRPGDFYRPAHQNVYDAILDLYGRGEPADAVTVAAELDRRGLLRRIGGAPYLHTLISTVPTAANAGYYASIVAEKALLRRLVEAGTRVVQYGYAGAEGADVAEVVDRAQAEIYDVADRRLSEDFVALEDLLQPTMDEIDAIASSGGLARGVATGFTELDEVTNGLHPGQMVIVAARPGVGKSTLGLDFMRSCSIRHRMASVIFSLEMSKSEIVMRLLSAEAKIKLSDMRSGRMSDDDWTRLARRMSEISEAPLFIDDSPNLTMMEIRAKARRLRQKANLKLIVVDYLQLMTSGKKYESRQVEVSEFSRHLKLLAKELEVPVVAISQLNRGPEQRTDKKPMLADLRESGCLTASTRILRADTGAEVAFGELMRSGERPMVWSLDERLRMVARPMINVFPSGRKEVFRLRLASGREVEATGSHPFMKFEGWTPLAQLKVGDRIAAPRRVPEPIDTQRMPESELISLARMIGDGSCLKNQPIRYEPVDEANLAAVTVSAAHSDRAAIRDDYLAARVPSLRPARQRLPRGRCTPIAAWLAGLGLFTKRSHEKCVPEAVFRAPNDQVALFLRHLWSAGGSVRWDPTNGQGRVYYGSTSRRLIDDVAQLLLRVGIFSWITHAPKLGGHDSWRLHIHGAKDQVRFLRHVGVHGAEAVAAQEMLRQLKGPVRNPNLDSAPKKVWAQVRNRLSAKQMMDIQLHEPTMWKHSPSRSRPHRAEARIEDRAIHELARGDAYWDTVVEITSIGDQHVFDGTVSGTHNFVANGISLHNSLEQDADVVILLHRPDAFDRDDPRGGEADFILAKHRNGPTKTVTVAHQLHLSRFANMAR

COc1ccc(NC(=O)C(Cc2ccccc2)n2cccc2)cc1 (configuration not stated)
EC50 [1]: > 50 µM (active)

FC(F)(F)C1CC(c2cccs2)Nc2ncnn21 (configuration not stated)
IC50 [2]: 0.904 µM (not active)

COc1cccc(N2CCN(C3=C(Cl)C(=O)N(c4cccc(C)c4)C3=O)CC2)c1
IC50 [3]: > 50 µM (inconclusive)

COc1ccc(CNCCc2c(C)[nH]c3ccc(OC(F)(F)F)cc23)c(OC)c1
EC50 [4]: 17.7 µM (active) | AC50 [5]: 9.13 µM (active) | EC50 [6]: 0.703 µM (active) | EC50 [7]: > 120 µM (not active) | AC50 [8]: 0.963 µM (active) | EC50 [9]: > 120 µM (not active) | EC50 [10]: > 60 µM (not active) | AC50 [11]: 8.45 µM (active) | AC50 (INS1): 4.68 µM (active)

Cc1ccc(Cn2c(=N)c(C(=O)NCCN3CCOCC3)cc3c(=O)n4ccccc4nc32)cc1
EC50 [1]: > 50 µM (active)

CC1=NNC(=O)C1C(c1ccc(Cl)cc1)C(C#N)C#N (configuration not stated)
EC50 (Protein RecA): 3.26 µM (active) | AC50 [12]: 7.84 µM (active)

CCCCCCOC(=O)c1ccccc1NC(=O)/C=C/C(=O)O
EC50 (Protein RecA): 3.41 µM (active) | AC50 [12]: > 380 µM (inactive)

COc1ccccc1CNc1nc(NCc2ccc(C(C)C)cc2)c2sccc2n1
AC50 [5]: 39.4 µM (active) | AC50 [8]: 6.81 µM (active) | AC50 [11]: 10.5 µM (active)

CCOC(=O)C1(CC2CCCCO2)CCN(C(=O)Nc2ccc(C)c(C)c2)CC1 (configuration not stated)
IC50 [2]: > 50 µM (not active)

O=C1C(Cl)=C(N2CCN(C/C=C/c3ccccc3)CC2)C(=O)N1c1cccc(C(F)(F)F)c1
IC50 [3]: > 50 µM (inconclusive)
